Data reported in patent US20260217688A1, “INHIBITORS OF JAK2” (Llydaw Therapeutics, Inc., priority 2022, published 2026).

Legend:
[1] = target: T1, JAK2 JH2 (Homo sapiens, UniProt O60674); assay: JAK2 JH2 TR-FRET Assay; format: binding; details: JAK2 JH2 1 nM, Tracer ZE84-0003 10 nM
T1 construct: Enzyme: JAK2 JH2, His-Avi-Tag, Biotin-Labeled (BPS Bioscience, Cat #79074) 1 nM; His; purchased BPS Bioscience 79074
Method: Assay Buffer 1×: • 20 mM HEPES pH 7.2-7.4; • 10 mM MgCl2; • 0.015% Brij-35; • 2 mM DTT; • 0.05 mg/ml BSA.
Final assay concentrations: • DMSO: 0.25%; • Streptavidin Tb-cryptate (Cisbio, Cat #610SATLB) 0.2 nM; • Enzyme: JAK2 JH2, His-Avi-Tag, Biotin-Labeled (BPS Bioscience, Cat #79074) 1 nM; • Probe: Tracer ZE84-0003 (ChemRar) 10 nM.
Materials: • Reaction plate: ProxiPlate-384 Plus White Plate (PerkinElmer); • Dilution plate: Diamond Well Plate (Axygen, Cat #P-384-120 SQ-C-S); • Compounds plate: Diamond Well Plate (Axygen, Cat #P-384-120 SQ-C-S).
Assay protocol: • 1. Prepare 400× solutions of compounds in DMSO into Compounds plate; • 2. Prepare Dilution plate: add 39 μL of 1× Assay buffer per well of Dilution plate; • 3. Prepare 2×Tb-cryptate mix in 1× Assay buffer. Add 10 μL of 2×Tb-cryptate mix to K-(Tb-cryptate and Probe without Enzyme) wells and blank (Tb-cryptate without Probe and Enzyme) wells; • 4. Add JAK2 JH2 into the rest of 2×Tb-cryptate mix to make 2×JAK2 JH2+Tb-cryptate mix. Add 10 μL per well into Reaction plate; • 5. Centrifuge plate at 200 g for 1 min; • 6. Dilute 1 μL of 400× compounds in 39 μL 1× Assay buffer in Dilution plate; • 7. Add 2 μL of 10× compounds from Dilution plate to Reaction plate with 10 μL of JAK2 JH2+Tb-cryptate mix; • 8. Centrifuge plate at 200 g for 1 min; • 9. Pre-incubate Reaction plate with compounds 15 min; • 10. Prepare 2.5× Tracer mix; • 11. Add 8 μL of 2.5× Tracer mix into appropriate wells of Reaction plate; • 12. Centrifuge plate at 800 g for 3 min; • 13. Incubate at rt for 15 min; • 14. Measure Fluorescence using Microplate Reader (Ex: TR, Em1/Em2: 482/520). The results of this assay are shown in the Table B. The values of EC50 shown as a letters A-D, where: A≤0.01 μM; 0.01 μM<B≤0.05 μM; 0.05 μM<C≤0.1 μM; D>0.1.

[2] = Proliferation inhibition assay (CellTiter-Glo), Ba/F3 JAK2 wt; format: cell-based; details: mouse, Ba/F3 (JAK2 wt) cells, with 10 ng/ml rmIL-3, 72 h; read-out: Ba/F3 JAK2 wt + IL3, CC50 3 days
Method: (§1) Ba/F3 (JAK2 wt) (ABM, T3076) cells and Ba/F3 (JAK2 V617F) (WuXi AppTec) cells were grown in RPMI-1640 (Gibco, cat. number 21870) supplemented with 10% FBS (Hyclone Laboratories Inc, Cat #SV30160.03), 1× Antibiotic-antimycotic (Gibco, Cat #15240-062), 2× Sodium pyruvate (Paneco, cat #F023), 2× Essential amino acids (Paneco, cat #F115/100), 1× Non-Essential amino acids (Paneco, cat #F116) at 37° C. in 5% CO2 atmosphere.
(§2) For the proliferation inhibition assay Ba/F3 (JAK2 wt) and Ba/F3 (JAK2 V617F) cells were seeded into a CellBIND® 384-well Flat Clear Bottom Black Polystyrene Microplates (Corning, USA, Cat #3770) at a density of 4000 cells per well in complete culture medium with or without 10 ng/ml rmIL-3 (RD systems, USA, Cat #403-ML-025) using Biomek FX/NX (384) liquid handler, 45 μl of cell suspension in complete culture medium per well. 500× compound's stocks in DMSO (Sigma Cat #D2650) were prepared in compounds plate (Diamond Well Plate, Axigen, Cat #P-384-120 SQ-C-S) applying Biomek 2000. 1 μl of 500× compounds stock was added to 49 μl of complete culture medium into Dilution plate (Diamond Well Plate, Axigen, Cat #P-384-120 SQ-C-S), mixed and then 5 μl of 10× compounds solution was transferred to cells using Biomek FX/NX (384) liquid handler. The centrifugation at 100 g for 1 min at Eppendorf 5810 followed. Final DMSO concentration in assay was 0.2%. All treatments were performed in technical and biological duplicates. Treated cells were incubated for 72 h at 37° C. with 5% CO2.
(§3) After 3 days of incubation, CellTiter-Glo Luminescent Cell Viability Assay (Promega) was performed. 10 μl of CellTiter-Glo (Promega, CAT #G7572) was added to the cells using Biomek FX/NX (384) liquid handler. The assay plate was centrifuged at 100 g for 1 min and luminescence signal was measured using Microplate Reader (CLARIOStar).

[3] = test system: Ba/F3 (JAK2 V617F) cells; assay: Proliferation inhibition assay (CellTiter-Glo), Ba/F3 JAK2 V617F; format: cell-based; details: Mus musculus, BaF3; without IL3, 72 h; read-out: Ba/F3 JAK2 V617F, CC50 3 days
Method: as §1, §2, §3

T1 sequence (O60674 545-809 limits assumed): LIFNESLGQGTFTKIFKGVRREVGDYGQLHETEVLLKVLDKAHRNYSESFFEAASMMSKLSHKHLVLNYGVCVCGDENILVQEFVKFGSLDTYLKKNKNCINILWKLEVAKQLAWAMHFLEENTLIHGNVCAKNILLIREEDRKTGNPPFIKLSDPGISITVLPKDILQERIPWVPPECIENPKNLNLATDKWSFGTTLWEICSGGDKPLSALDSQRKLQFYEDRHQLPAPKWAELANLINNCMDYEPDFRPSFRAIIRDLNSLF

## COc1c(Nc2nc(Nc3cnn(CCN(C)C)c3)ncc2C(N)=O)cccc1-c1ncn(C)n1 [Compound 5, 2-((1-(2-(dimethylamino)ethyl)-1H-pyrazol-4-yl)amino)-4-((2-methoxy-3-(1-methyl-1H-1,2,4-triazol-3-yl)phenyl)amino)pyrimidine-5-carboxamide]
[1]
  EC50: 10 to 50 nM

## COc1c(Nc2nc(Nc3cn(C)nc3C)ncc2C(N)=O)cccc1-c1ncn(C)n1 [Compound 13, 2-[(1,3-dimethylpyrazol-4-yl)amino]-4-[2-methoxy-3-(1-methyl-1,2,4-triazol-3-yl)anilino]pyrimidine-5-carboxamide]
[1]
  EC50: > 100 nM

## CCCn1nc(C)c(Nc2ncc(C(N)=O)c(Nc3cccc(-c4ncn(C)n4)c3OC)n2)c1C [Compound 19, 2-[(3,5-dimethyl-1-propyl-pyrazol-4-yl)amino]-4-[2-methoxy-3-(1-methyl-1,2,4-triazol-3-yl)anilino]pyrimidine-5-carboxamide]
[1]
  EC50: > 100 nM

## COc1c(Nc2nc(Nc3c(C)nn(C(C)C)c3C)ncc2C(N)=O)cccc1-c1ncn(C)n1 [Compound 20, 2-[(1-isopropyl-3,5-dimethyl-pyrazol-4-yl)amino]-4-[2-methoxy-3-(1-methyl-1,2,4-triazol-3-yl)anilino]pyrimidine-5-carboxamide]
[1]
  EC50: > 100 nM

## COc1c(Nc2nc(Nc3cnn(CC45CC6CC(CC(C6)C4)C5)c3)ncc2C(N)=O)cccc1-c1ncn(C)n1 [Compound 23, 2-[[1-(1-adamantylmethyl)pyrazol-4-yl]amino]-4-[2-methoxy-3-(1-methyl-1,2,4-triazol-3-yl)anilino]pyrimidine-5-carboxamide]
[1]
  EC50: > 100 nM

## CCCCCCCCn1cc(Nc2ncc(C(N)=O)c(Nc3cccc(-c4ncn(C)n4)c3OC)n2)cn1 [Compound 25, 4-[2-methoxy-3-(1-methyl-1,2,4-triazol-3-yl)anilino]-2-[(1-octylpyrazol-4-yl)amino]pyrimidine-5-carboxamide]
[1]
  EC50: > 100 nM

## COc1c(Nc2nc(Nc3cnn(CCC4CCCCN4C)c3)ncc2C(N)=O)cccc1-c1ncn(C)n1 (stereo not drawn) [Compound 27, 4-[2-methoxy-3-(1-methyl-1,2,4-triazol-3-yl)anilino]-2-[[1-[2-(1-methyl-2-piperidyl)ethyl]pyrazol-4-yl]amino]pyrimidine-5-carboxamide]
[1]
  EC50: > 100 nM

## COc1c(Nc2nc(Nc3cnn(C(C)C)c3)ncc2C(=O)N(C)C)cccc1-c1ncn(C)n1 [Compound 31, 2-[(1-Isopropyl-1H-pyrazol-4-yl)amino]-4-{[2-methoxy-3-(1-methyl-1H-1,2,4-triazol-3-yl)phenyl]amino}-N,N-dimethylpyrimidine-5-carboxamide]
[1]
  EC50: > 100 nM

## COc1c(Nc2nc(Nc3cnn(C4CCN(C)CC4)c3)ncc2C(N)=O)cccc1-c1nc2ccccc2o1 [Compound 32, 4-[3-(1,3-benzoxazol-2-yl)-2-methoxy-anilino]-2-[[1-(1-methyl-4-piperidyl)pyrazol-4-yl]amino]pyrimidine-5-carboxamide]
[1]
  EC50: 10 to 50 nM
[2]
  CC50 at 72 h: 1000 to 5000 nM
[3]
  CC50: 500 to 1000 nM

## COc1c(Nc2nc(Nc3cnn(C4CCN(C(C)C)CC4)c3)ncc2C(N)=O)cccc1-c1nc2ccccc2o1 [Compound 33, 4-[3-(1,3-benzoxazol-2-yl)-2-methoxy-anilino]-2-[[1-(1-isopropyl-4-piperidyl)pyrazol-4-yl]amino]pyrimidine-5-carboxamide]
[1]
  EC50: 10 to 50 nM
[2]
  CC50 at 72 h: 1000 to 5000 nM
[3]
  CC50: ≤ 500 nM

## COc1c(Nc2nc(Nc3cnn(CCN(CC(C)C)CC(C)C)c3)ncc2C(N)=O)cccc1-c1nc2ccccc2o1 [Compound 34]
[1]
  EC50: > 100 nM
[2]
  CC50 at 72 h: 5000 to 10000 nM
[3]
  CC50: 1000 to 5000 nM

## COc1c(Nc2nc(Nc3cnn(C4CCN(C(C)C)CC4)c3)ncc2C(N)=O)cccc1-c1ncn(C)n1 [Compound 35, 2-[[1-(1-isopropyl-4-piperidyl)pyrazol-4-yl]amino]-4-[2-methoxy-3-(1-methyl-1,2,4-triazol-3-yl)anilino]pyrimidine-5-carboxamide]
[1]
  EC50: 10 to 50 nM
[2]
  CC50 at 72 h: > 10000 nM
[3]
  CC50: 1000 to 5000 nM

## COc1c(Nc2nc(Nc3cnn(C)c3)ncc2C(N)=O)cccc1-c1cccnc1 [Compound 36, 4-[2-methoxy-3-(3-pyridyl)anilino]-2-[(1-methylpyrazol-4-yl)amino]pyrimidine-5-carboxamide]
[1]
  EC50: 10 to 50 nM
[2]
  CC50 at 72 h: > 10000 nM
[3]
  CC50: > 10000 nM

## COc1c(Nc2nc(Nc3cnn(C)c3)ncc2C(N)=O)cccc1-c1ccncc1 [Compound 37, 4-[2-methoxy-3-(4-pyridyl)anilino]-2-[(1-methylpyrazol-4-yl)amino]pyrimidine-5-carboxamide]
[1]
  EC50: 10 to 50 nM
[2]
  CC50 at 72 h: 5000 to 10000 nM
[3]
  CC50: 5000 to 10000 nM

## COc1c(Nc2nc(Nc3cnn(C(C)C)c3)ncc2C(N)=O)cccc1-c1ccccn1 [Compound 38, 2-[(1-isopropylpyrazol-4-yl)amino]-4-[2-methoxy-3-(2-pyridyl)anilino]pyrimidine-5-carboxamide]
[1]
  EC50: 10 to 50 nM
[2]
  CC50 at 72 h: 5000 to 10000 nM
[3]
  CC50: ≤ 500 nM

## COc1c(Nc2nc(Nc3cnn(C4CCCCC4)c3)ncc2C(N)=O)cccc1-c1ccccn1 [Compound 39, 2-[(1-cyclohexylpyrazol-4-yl)amino]-4-[2-methoxy-3-(2-pyridyl)anilino]pyrimidine-5-carboxamide]
[1]
  EC50: 50 to 100 nM
[2]
  CC50 at 72 h: 5000 to 10000 nM
[3]
  CC50: ≤ 500 nM

## COc1c(Nc2nc(Nc3cnn(C4CCOCC4)c3)ncc2C(N)=O)cccc1-c1ccccn1 [Compound 40, 4-[2-methoxy-3-(2-pyridyl)anilino]-2-[(1-tetrahydropyran-4-ylpyrazol-4-yl)amino]pyrimidine-5-carboxamide]
[1]
  EC50: 10 to 50 nM
[2]
  CC50 at 72 h: 5000 to 10000 nM
[3]
  CC50: ≤ 500 nM

## COc1c(Nc2nc(Nc3cnn(C45CC6CC(CC(C6)C4)C5)c3)ncc2C(N)=O)cccc1-c1ccccn1 [Compound 41, 2-[[1-(1-adamantyl)pyrazol-4-yl]amino]-4-[2-methoxy-3-(2-pyridyl)anilino]pyrimidine-5-carboxamide]
[1]
  EC50: > 100 nM
[2]
  CC50 at 72 h: 5000 to 10000 nM
[3]
  CC50: 1000 to 5000 nM

## COc1c(Nc2nc(Nc3cnn(CC(C)C)c3)ncc2C(N)=O)cccc1-c1ncn(C)n1 [Compound 58, 2-[(1-isobutylpyrazol-4-yl)amino]-4-[2-methoxy-3-(1-methyl-1,2,4-triazol-3-yl)anilino]pyrimidine-5-carboxamide]
[2]
  CC50 at 72 h: 1000 to 5000 nM
[3]
  CC50: 500 to 1000 nM

## COc1c(Nc2nc(Nc3cnn(CC(F)(F)F)c3)ncc2C(N)=O)cccc1-c1ncn(C)n1 [Compound 59]
[2]
  CC50 at 72 h: 5000 to 10000 nM
[3]
  CC50: 1000 to 5000 nM
